Data reported in patent US5654427A, “Indolocarbazole derivatives to treat a pathological condition of the prostate” (Kyowa Hakko Kogyo Co., Ltd., priority 1995, dated 1997).

Target: T1, trkA (Rattus norvegicus, UniProt P35739)
T1 construct: are rat pheochromocytoma cells that bear trkA; host or cells: PC12 rat pheochromocytoma cells
Test: inhibition of NGF-stimulated trk autophosphorylation (tyrosine phosphorylation) in PC12 cells, anti-phosphotyrosine Western blot; as to trk 100 nM (inhibition of phosphorylation): key: +: Inhibited phosphorylation; -: Did not inhibit phosphorylation; as to trk 500 nM (inhibition of phosphorylation): key: +: Inhibited phosphorylation; -: Did not inhibit phosphorylation
Type: cell-based
Conditions: for trk 100 nM (inhibition of phosphorylation) / phosphorylation response (FIG. 1, spot): 100 nM compound; for trk 100 nM (inhibition of phosphorylation) / trk 500 nM (inhibition of phosphorylation): NGF 50 ng/ml; for trk 500 nM (inhibition of phosphorylation): 500 nM compound; for phosphorylation response (FIG. 1, spot): NGF, Western blot FIG. 1
Protocol: Candidate compounds for the inhibition of prostate cell proliferation were selected according to their ability to inhibit the tyrosine kinase activity associated with the trks.
PC12 cells (ATCC #CRL1721) are rat pheochromocytoma cells that bear trkA and differentiate into sympathetic neurons when treated with NGF. […] Cells were incubated at 37° C. in a humidified atmosphere of 10% CO2 and 90% air. […] The cells in each culture were disrupted and cell lysates were prepared by standard techniques known to those skilled in the art. Each lysate was incubated with anti-trk antibody whereby immune complexes were formed. […] The immune complexes were collected on Protein A-Sepharose beads, separated by SDS-polyacrylamide gel electrophoresis (SDS-PAGE), and transferred to polyvinylidene difluoride (PVDF) membranes (Millipore Corp., Bedford, Mass.), using techniques well known to those skilled in the art. The membranes were incubated with anti-phosphotyrosine antibody, which binds to the tyrosine phosphorylated trks, but not to the un-phosphorylated form of trks. Proteins bound to anti-phosphotyrosine antibody were visualized with enhanced chemiluminescence (ECL, Amersham), and are shown as dark "spots" in FIG. 1.
Measurement of the autophosphorylation of trk provides a good index of trk tyrosine kinase activity, and thereby of trk stimulation.
Inhibition was indicated by the absence of a spot migrating with the trk marker shown at the left side of the figure. Partial inhibition was indicated by a spot of reduced size.

T1 sequence (P35739 33-799): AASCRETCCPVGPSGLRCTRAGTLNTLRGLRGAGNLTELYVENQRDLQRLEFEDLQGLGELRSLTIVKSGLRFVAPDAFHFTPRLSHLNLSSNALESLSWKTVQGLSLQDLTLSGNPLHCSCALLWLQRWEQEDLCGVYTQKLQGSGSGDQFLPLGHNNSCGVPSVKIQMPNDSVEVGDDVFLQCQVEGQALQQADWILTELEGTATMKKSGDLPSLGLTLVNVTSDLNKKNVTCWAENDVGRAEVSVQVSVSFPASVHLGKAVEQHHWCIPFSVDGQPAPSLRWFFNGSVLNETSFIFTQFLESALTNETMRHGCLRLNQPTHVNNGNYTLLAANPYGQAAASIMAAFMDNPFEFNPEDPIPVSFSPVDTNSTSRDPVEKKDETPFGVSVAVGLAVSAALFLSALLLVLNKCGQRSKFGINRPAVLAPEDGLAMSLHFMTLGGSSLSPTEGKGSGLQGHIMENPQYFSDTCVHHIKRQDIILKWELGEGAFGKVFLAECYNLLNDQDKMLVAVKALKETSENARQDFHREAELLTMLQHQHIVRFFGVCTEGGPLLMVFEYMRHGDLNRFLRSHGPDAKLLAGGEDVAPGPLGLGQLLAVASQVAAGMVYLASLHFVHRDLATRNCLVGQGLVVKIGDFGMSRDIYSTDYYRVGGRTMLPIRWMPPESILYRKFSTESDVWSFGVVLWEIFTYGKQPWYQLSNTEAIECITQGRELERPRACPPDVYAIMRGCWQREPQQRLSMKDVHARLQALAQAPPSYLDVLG

SMILES	trk 100 nM (inhibition of phosphorylation)	trk 500 nM (inhibition of phosphorylation)	phosphorylation response (FIG. 1, spot)
CC12OC(CC1O)n1c3ccccc3c3c4c(c5c6ccccc6n2c5c31)CNC4=O (centres unmarked) [Compound I-3]	+		
CC12OC(CC1(O)C(N)=O)n1c3ccccc3c3c4c(c5c6ccccc6n2c5c31)CNC4=O (centres unmarked) [Compound I-4]	+	+	
CC(=O)OCC1(O)CC2OC1(C)n1c3ccccc3c3c4c(c5c6ccccc6n2c5c31)C(=O)NC4 (centres unmarked) [Compound I-6]	+		
CC12OC(CC13CNC(=O)O3)n1c3ccccc3c3c4c(c5c6ccccc6n2c5c31)CNC4=O (centres unmarked) [Compound I-7]	+		absent (no spot seen)
CCNC(=O)C1(O)CC2OC1(C)n1c3ccccc3c3c4c(c5c6ccccc6n2c5c31)C(=O)NC4 (centres unmarked) [Compound I-9]	+		absent (no spot seen)
CCCNC(=O)C1(O)CC2OC1(C)n1c3ccccc3c3c4c(c5c6ccccc6n2c5c31)C(=O)NC4 (centres unmarked) [Compound I-10]	+		
CC12OC(CC1(O)C(=O)N1CCOCC1)n1c3ccccc3c3c4c(c5c6ccccc6n2c5c31)CNC4=O (centres unmarked) [Compound I-11]	+		
CC1(C)OCC2(CC3OC2(C)n2c4ccccc4c4c5c(c6c7ccccc7n3c6c42)C(=O)NC5)O1 (centres unmarked) [Compound I-13]	+	+	
CC12OC(CC1(O)C=NNC(N)=O)n1c3ccccc3c3c4c(c5c6ccccc6n2c5c31)CNC4=O (centres unmarked) [Compound I-14]	+		
CC12OC(CC1(O)CNC(=O)[C@@H]1CCCN1)n1c3ccccc3c3c4c(c5c6ccccc6n2c5c31)CNC4=O (some centres unmarked) [Compound I-17]	-	+	
CC12OC(CC1(O)CNC(=O)[C@@H](N)CO)n1c3ccccc3c3c4c(c5c6ccccc6n2c5c31)CNC4=O (some centres unmarked) [Compound I-18]	+		
CC12OC(CC1(O)CN=[N+]=[N-])n1c3ccccc3c3c4c(c5c6ccccc6n2c5c31)CNC4=O (centres unmarked) [Compound I-21]	-	+	
COC(=O)C1(O)CC2OC1(C)n1c3ccccc3c3c4c(c5c6cc(Br)ccc6n2c5c31)C(=O)NC4 (centres unmarked) [Compound I-23]	-	+	
CC(=O)NCC1(O)CC2OC1(C)n1c3ccccc3c3c4c(c5c6ccccc6n2c5c31)C(=O)NC4 (centres unmarked) [Compound I-24]	+		
CN(C)C(=O)C1(O)CC2OC1(C)n1c3ccccc3c3c4c(c5c6ccccc6n2c5c31)C(=O)NC4 (centres unmarked) [Compound I-25]	+		
CC12OC(CC1(O)C(=O)NO)n1c3ccccc3c3c4c(c5c6ccccc6n2c5c31)CNC4=O (centres unmarked) [Compound I-26]	+		
COC(=O)C1(O)CC2OC1(C)n1c3ccccc3c3c4c(c5c6cc(NC(=O)Nc7ccccc7)ccc6n2c5c31)C(=O)NC4 (centres unmarked) [Compound I-27]	-	+	
CC12OC(CC1(O)C=NO)n1c3ccccc3c3c4c(c5c6ccccc6n2c5c31)CNC4=O (centres unmarked) [Compound I-28]	+		
CC12OC(CC1(O)C=NNC(=N)N)n1c3ccccc3c3c4c(c5c6ccccc6n2c5c31)CNC4=O (centres unmarked) [Compound I-29]	-	+	
CC12OC(CC1(O)C=NNC1=NCCN1)n1c3ccccc3c3c4c(c5c6ccccc6n2c5c31)CNC4=O (centres unmarked) [Compound I-30]	-	+	
COC(=O)CC1(O)CC2OC1(C)n1c3ccccc3c3c4c(c5c6ccccc6n2c5c31)C(=O)NC4 (centres unmarked) [Compound I-31]	+		
CC12OC(CC1(O)CNC(=O)CN)n1c3ccccc3c3c4c(c5c6ccccc6n2c5c31)CNC4=O (centres unmarked) [Compound I-32]	+		
CC12OC(CC1(O)C(=O)Nc1ccccc1)n1c3ccccc3c3c4c(c5c6ccccc6n2c5c31)CNC4=O (centres unmarked) [Compound I-33]	-	+	
CCNC(=O)Nc1ccc2c(c1)c1c3c(c4c5ccccc5n5c4c1n2C1CC(O)(C(=O)OC)C5(C)O1)CNC3=O (centres unmarked) [Compound I-34]	-	+	

SMILES	trk 100 nM (inhibition of phosphorylation)	trk 500 nM (inhibition of phosphorylation)	phosphorylation response (FIG. 1, spot)
CCNC(=O)OCc1ccc2c(c1)c1c3c(c4c5ccccc5n5c4c1n2C1CC(O)(C(=O)OC)C5(C)O1)CNC3=O (centres unmarked) [Compound I-35]	+	+	
CC12OC(CC1(O)CO)n1c3ccc(Br)cc3c3c4c(c5c6ccccc6n2c5c31)CNC4=O (centres unmarked) [Compound I-36]	+		
COC(=O)Nc1ccc2c(c1)c1c3c(c4c5ccccc5n5c4c1n2C1CC(O)(C(=O)OC)C5(C)O1)CNC3=O (centres unmarked) [Compound I-37]	+		
COC(=O)C1(O)CC2OC1(C)n1c3ccccc3c3c4c(c5c6cc(C)ccc6n2c5c31)C(=O)NC4 (centres unmarked) [Compound I-38]	+		
COC(=O)C1(O)CC2OC1(C)n1c3ccc(Br)cc3c3c4c(c5c6cc(Br)ccc6n2c5c31)C(=O)NC4 (centres unmarked) [Compound I-39]	+		somewhat diminished (a smaller spot was seen)
CC12OC(CC1(O)C[S+]([O-])c1ccccn1)n1c3ccccc3c3c4c(c5c6ccccc6n2c5c31)CNC4=O (centres unmarked) [Compound I-40]	+		
CCOCc1ccc2c(c1)c1c3c(c4c5ccccc5n5c4c1n2C1CC(O)(C(=O)OC)C5(C)O1)CNC3=O (centres unmarked) [Compound I-41]	+	+	
CC12OC(CC1(O)C(=O)NCCO)n1c3ccc(Br)cc3c3c4c(c5c6cc(Br)ccc6n2c5c31)CNC4=O (centres unmarked) [Compound I-43]	-	+	
COC(=O)C1(O)CC2OC1(C)n1c3ccc(Cl)cc3c3c4c(c5c6cc(Cl)ccc6n2c5c31)C(=O)NC4 (centres unmarked) [Compound I-44]	-	+	
CC12OC(CC1=O)n1c3ccccc3c3c4c(c5c6ccccc6n2c5c31)CNC4=O (centres unmarked) [Compound I-52]	+		
COC(=O)C1(OC)CC2OC1(C)n1c3ccccc3c3c4c(c5c6ccccc6n2c5c31)C(=O)NC4 (centres unmarked) [Compound I-53]	+		
CNC(=O)C1(O)CC2OC1(C)n1c3ccccc3c3c4c(c5c6ccccc6n2c5c31)C(=O)NC4 (centres unmarked) [Compound I-54]	+		
CC(=O)OC1(C(=O)NCC(C)C)CC2OC1(C)n1c3ccccc3c3c4c(c5c6ccccc6n2c5c31)C(=O)NC4 (centres unmarked) [Compound I-55]	+		
CSCC1(O)CC2OC1(C)n1c3ccccc3c3c4c(c5c6ccccc6n2c5c31)C(=O)NC4 (centres unmarked) [Compound I-56]		+	
CC12OC(CC1(O)CNC(=O)[C@@H](N)CCCCN)n1c3ccccc3c3c4c(c5c6ccccc6n2c5c31)CNC4=O (some centres unmarked) [Compound I-57]	+		
COC(=O)C1(O)CC2OC1(C)n1c3ccccc3c3c4c(c5c6cc(C(Sc7ccccc7)Sc7ccccc7)ccc6n2c5c31)C(=O)NC4 (centres unmarked) [Compound I-58]	-	+	
COC(=O)C1(O)CC2OC1(C)n1c3ccccc3c3c4c(c5c6cc(C7SCCS7)ccc6n2c5c31)C(=O)NC4 (centres unmarked) [Compound I-59]	-	+	
COC(=O)C1(O)CC2OC1(C)n1c3ccccc3c3c4c(c5c6cc(CSc7ccccn7)ccc6n2c5c31)C(=O)NC4 (centres unmarked) [Compound I-60]	-	+	
COC(=O)C1(O)CC2OC1(C)n1c3ccccc3c3c4c(c5c6cc(C=NNC7=NCCN7)ccc6n2c5c31)C(=O)NC4 (centres unmarked) [Compound I-61]	-	+	
COC(=O)C1(O)CC2OC1(C)n1c3ccccc3c3c4c(c5c6cc(CSc7ncccn7)ccc6n2c5c31)C(=O)NC4 (centres unmarked) [Compound I-62]	+	+	
COC(=O)C1(O)CC2OC1(C)n1c3ccccc3c3c4c(c5c6cc(C[S+]([O-])c7ncccn7)ccc6n2c5c31)C(=O)NC4 (centres unmarked) [Compound I-63]	-	+	
COC(=O)C1(O)CC2OC1(C)n1c3ccccc3c3c4c(c5c6cc(C[S+]([O-])c7ccccn7)ccc6n2c5c31)C(=O)NC4 (centres unmarked) [Compound I-64]	-	+	
CCSCc1ccc2c(c1)c1c3c(c4c5cc(CO)ccc5n5c4c1n2C1CC(O)(C(=O)OC)C5(C)O1)CNC3=O (centres unmarked) [Compound I-65]	-	+	
CC[S+]([O-])Cc1ccc2c(c1)c1c3c(c4c5cc(C[S+]([O-])CC)ccc5n5c4c1n2C1CC(O)(C(=O)OC)C5(C)O1)CNC3=O (centres unmarked) [Compound I-66]	-	+	
